In test [1] the test system is pERK in MKN1 cells. In words: cells. It counts as cell-based. Conditions: Homo sapiens.
The target of test [2] is recombinant human SOS1 polypeptide (amino acids 560-1049) (Homo sapiens (Human), UniProt Q07889). Nature of the test: biochemical. It counts as binding.
Experimental: The ability of a compound of Formula (I) to bind to SOS1 was measured using a HTRF displacement assay. […] After a 1-hour incubation at room temperature, the HTRF signal was measured using Clairostar plate reader (BMG Labtech) according to the manufacturer's instructions. Excitation filter EX-TR was used, and emission 1 was detected at 650-610 nm and emission 2 detected at 620-610 nm. The HTRF ratio was calculated using the formula: [emission 1/emission 2]*10000.
Background signals were calculated from well with a 10 μM inhibitor, known to inhibit 100% at that concentration. The background subtracted signals were converted to % binding relative to DMSO controls. Data were analyzed using XLFIT software (IDBS) using a Morrison equation for competitive binding and Ki's were generated compound of Formula (I).
[3] abbreviates: MKN-1, pERK inhibition, In-Cell Western, MKN1 or H358 cells (Table 24 does not say which), 0.5-1 hour incubation.
Setting [4] is: read-out: Ki, Inhibition of Labeled Tracer Binding to SOS1.
Setting [5] is: MKN-1, pERK inhibition, In-Cell Western, MKN1 or H358 cells (Table 24 does not say which), 0.5-1 hour incubation, read-out: IC50.
Setting [6] is: HTRF displacement, Cy5 labelled tracer, Morrison equation for competitive binding, read-out: Ki, Inhibition of Labeled Tracer Binding to SOS1.

Structures can show the parent of a compound that is named as a salt. Where two headings read alike, the source gives them in different places.

Sequence of recombinant human SOS1 polypeptide (amino acids 560-1049) (Q07889 560-1049): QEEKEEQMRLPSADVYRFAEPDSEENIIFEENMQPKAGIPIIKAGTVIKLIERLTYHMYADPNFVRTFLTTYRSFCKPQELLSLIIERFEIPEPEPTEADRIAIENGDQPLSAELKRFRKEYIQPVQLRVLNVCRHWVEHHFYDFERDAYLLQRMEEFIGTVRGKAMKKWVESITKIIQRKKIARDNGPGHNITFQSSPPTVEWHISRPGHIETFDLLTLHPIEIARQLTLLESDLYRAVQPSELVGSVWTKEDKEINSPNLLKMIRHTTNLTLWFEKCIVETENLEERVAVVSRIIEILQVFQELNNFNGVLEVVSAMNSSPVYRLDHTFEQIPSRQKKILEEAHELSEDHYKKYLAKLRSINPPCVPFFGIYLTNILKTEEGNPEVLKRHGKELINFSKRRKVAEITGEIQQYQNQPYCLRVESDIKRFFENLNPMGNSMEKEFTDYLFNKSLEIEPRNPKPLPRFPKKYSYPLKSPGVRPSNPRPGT

In general, IC50 refers to the concentration that inhibits the measured activity by half. What is called Ki is the equilibrium dissociation constant of an inhibitor or competing ligand from its target. In test [1] (setting [3]), `Cc1cc(C#N)cc([C@@H](C)Nc2nnc(C)c3cnc(N4CCOCC4)cc23)c1` [Example 21-3, (R)-3-methyl-5-(1-((4-methyl-7-morpholinopyrido[3,4-d]pyridazin-1-yl)amino)ethyl)benzonitrile] came in with an IC50 of 0.221 µM. In addition, the Ki in test [2] (setting [4]) was 0.0144 µM.
On to `Cc1c([C@@H](C)Nc2nnc(C)c3cnc(N4C[C@H]5C[C@@H]4CO5)cc23)cccc1C(F)(F)F` [Example 12-9], for which the IC50 in test [1] (setting [5]) was found to be 0.01 µM. The Ki in test [2] (setting [6]) came out at 0.00047 µM.
`CNCc1ccccc1-c1ccc([C@@H](C)Nc2nnc(C(F)(F)F)c3ccc(N4CCOCC4)cc23)s1` [Example 10-2, (R)—N-(1-(5-(2-((methylamino)methyl)phenyl)thiophen-2-yl)ethyl)-7-morpholino-4-(trifluoromethyl)phthalazin-1-amine]: the IC50 in test [1] (setting [5]) was 1.37 µM. In addition, the Ki in test [2] (setting [6]) is 0.0149 µM.
`Cc1c(C#N)cccc1[C@@H](C)Nc1nnc(C)c2cnc(N3CCC(C)(N(C)C)CC3)cc12` [Example 12-46]: the IC50 in test [1] (setting [5]) was 0.037 µM. Also, the Ki in test [2] (setting [6]) was determined as 0.00092 µM.
As for `COC1(C)CN(c2cc3c(N[C@H](C)c4cccc(C#N)c4C)nnc(C)c3cn2)C1` [Example 12-55], the IC50 in test [1] (setting [5]) is 0.059 µM. The Ki in test [2] (setting [6]) was 0.0031 µM.
Regarding `Cc1c(C(F)F)cccc1[C@@H](C)Nc1nnc(C)c2cnc(N3CCN(c4cnn(C)c4)CC3)cc12` [Example 12-59], the IC50 in test [1] (setting [5]) turned out to be 0.019 µM. For the same compound, in test [2] (setting [6]), the Ki was found to be 0.00047 µM.
Regarding `Cc1c(C#N)cccc1[C@@H](C)Nc1nnc(C)c2cnc(N3CC(C)(O)C3)cc12` [Example 12-30], the IC50 in test [1] (setting [5]) is 0.054 µM. Moreover, the inhibition constant (Ki) in test [2] (setting [6]) is 0.00263 µM.
The matching figures for `Cc1c(C#N)cccc1[C@@H](C)Nc1nnc(C)c2ccc(N3CCN(c4cnn(C)c4)CC3)cc12` [Example 10-70, (R)-2-methyl-3-(1-((4-methyl-7-(4-(1-methyl-1H-pyrazol-4-yl)piperazin-1-yl)phthalazin-1-yl)amino)ethyl)benzonitrile]: 0.015 µM and 0.00089 µM.
`Cc1nnc(N[C@H](C)c2cccc3ccccc23)c2cc(N3CCNCC3)ccc12` [Example 10-43, (R)-4-methyl-N-(1-(naphthalen-1-yl)ethyl)-7-(piperazin-1-yl)phthalazin-1-amine formate salt] displayed an IC50 in test [1] (MKN-1) of 0.138 µM. In addition, in test [2] (setting [4]), the Ki amounted to 0.00113 µM.
Turning to `Cc1c([C@@H](C)Nc2nnc(C)c3ccc(N4C[C@H]5CC[C@@H]4CN5C)cc23)cccc1C(F)(F)F` [Example 10-32, 4-methyl-N-((R)-1-(2-methyl-3-(trifluoromethyl)phenyl)ethyl)-7-((1R,4R)-5-methyl-2,5-diazabicyclo[2.2.2]octan-2-yl)phthalazin-1-amine], the IC50 in test [1] (setting [5]) amounted to 0.028 µM. Moreover, the Ki in test [2] (setting [6]) stood at 0.0002 µM.
For `Cc1c(C#N)cccc1[C@@H](C)Nc1nnc(C)c2ccc(N3C[C@H]4CC[C@@H]3CN4C)cc12` [Example 10-71, 2-methyl-3-((R)-1-((4-methyl-7-((1R,4R)-5-methyl-2,5-diazabicyclo[2.2.2]octan-2-yl)phthalazin-1-yl)amino)ethyl)benzonitrile], the IC50 in test [1] (setting [5]) was 0.019 µM. Besides, the Ki in test [2] (setting [6]) was found to be 0.00039 µM.
For `Cc1c([C@@H](C)Nc2nnc(C)c3cnc(N4CC(C)(O)C4)cc23)cccc1C(F)(F)F` [Example 12-21], in that order: 0.057 µM and 0.00132 µM.
In the case of `Cc1nnc(N[C@H](C)c2cc(F)cc(C#N)c2)c2cc(N3CCOCC3)ccc12` [Example 10-52, (R)-3-fluoro-5-(1-((4-methyl-7-morpholinophthalazin-1-yl)amino)ethyl)benzonitrile], in test [1] (setting [5]), the IC50 came to 0.286 µM. Besides, the inhibitory constant (Ki) in test [2] (setting [6]) amounted to 0.0445 µM.
For the compound `Cc1c([C@@H](C)Nc2nnc(C)c3cnc(N4CCC(C)(N(C)C)CC4)cc23)cccc1C(F)(F)F` [Example 12-18], in test [1] (setting [5]), the IC50 is 0.037 µM. For the same compound, the Ki in test [2] (setting [6]) stood at 0.00062 µM.
In the case of `Cc1nnc(N[C@H](C)c2cccc(C(F)(F)F)c2F)c2cc(N3CCC(N(C)C)CC3)ncc12` [Example 12-64], in test [1] (setting [5]), the IC50 came to 0.029 µM. In test [2] (setting [6]), the Ki was 0.00051 µM.
In the case of `Cc1c([C@@H](C)Nc2nnc(C)c3cnc(N4CC(C)(N(C)C)C4)cc23)cccc1C(F)(F)F` [Example 12-19], the IC50 in test [1] (setting [5]) turned out to be 0.059 µM. The inhibition constant Ki in test [2] (setting [6]) amounted to 0.001 µM.
`Cc1c(C#N)cccc1[C@@H](C)Nc1nnc(C)c2ccc(N3CCN4CCCC[C@@H]4C3)cc12` [Example 10-82, 2-methyl-3-((R)-1-((4-methyl-7-((R)-octahydro-2H-pyrido[1,2-a]pyrazin-2-yl)phthalazin-1-yl)amino)ethyl)benzonitrile Hydrochloride salt] yielded an IC50 in test [1] (MKN-1) of 0.052 µM. Moreover, the Ki in test [2] (setting [4]) is 0.00086 µM.
Regarding `Cc1c([C@@H](C)Nc2nncc3ccc(N4CCn5c(cnc5C)C4)cc23)cccc1C(F)(F)F` [Example 1-37, (R)-N-(1-(2-methyl-3-(trifluoromethyl)phenyl)ethyl)-7-(3-methyl-5,6-dihydroimidazo[1,5-a]pyrazin-7(8H)-yl)phthalazin-1-amine], the IC50 in test [1] (setting [5]) is 0.131 µM. In addition, the Ki in test [2] (setting [6]) stood at 0.00025 µM.
For `Cc1c([C@@H](C)Nc2nnc(C)c3ccc(O[C@H]4CCOC4)cc23)cccc1C(F)(F)F` [Example 13-1, 4-methyl-N—((R)-1-(2-methyl-3-(trifluoromethyl)phenyl)ethyl)-7-(((S)-tetrahydrofuran-3-yl)oxy)phthalazin-1-amine], in that order: 0.149 µM and 0.00277 µM.
In test [1] (MKN-1), `Cc1c([C@@H](C)Nc2nnc(C)c3ccc(N4CCC5(CCN(C)C5)CC4)cc23)cccc1C(F)(F)F` [Example 10-37, (R)-4-methyl-N-(1-(2-methyl-3-(trifluoromethyl)phenyl)ethyl)-7-(2-methyl-2,8-diazaspiro[4.5]decan-8-yl)phthalazin-1-amine hydrochloride salt] yielded an IC50 of 0.055 µM. Also, the Ki in test [2] (setting [4]) is 0.00024 µM.
Regarding `Cc1c(C#N)cccc1[C@@H](C)Nc1nnc(C)c2cnc(N3CC4(CCN(CC(F)(F)F)C4)C3)cc12` [Example 12-78], the IC50 in test [1] (setting [5]) is 0.094 µM. Also, in test [2] (setting [6]), the Ki was found to be 0.00266 µM.
Take `Cc1c([C@@H](C)Nc2nnc(C)c3cc(F)c(N4CCOCC4)cc23)cccc1C(F)(F)F` [Example 18-2, (R)-6-fluoro-4-methyl-N-(1-(2-methyl-3-(trifluoromethyl)phenyl)ethyl)-7-morpholinophthalazin-1-amine]: the 50% inhibitory concentration (IC50) in test [1] (setting [3]) stood at 0.38 µM. Also, in test [2] (setting [4]), the Ki came to 0.00527 µM.
As to `Cc1c([C@@H](C)Nc2nnc(C)c3cnc(O[C@H]4CCN(C)C4)cc23)cccc1C(F)(F)F` [Example 12-11], the IC50 in test [1] (setting [5]) stood at 0.142 µM. Moreover, in test [2] (setting [6]), the Ki came to 0.00876 µM.
The compound `Cc1c([C@@H](C)Nc2nnc(C)c3ccc(N4CC[C@@H](N(C)C)C4)cc23)cccc1C(F)(F)F` [Example 10-26, 7-((R)-3-(dimethylamino)pyrrolidin-1-yl)-4-methyl-N-((R)-1-(2-methyl-3-(trifluoromethyl)phenyl)ethyl)phthalazin-1-amine hydrochloride salt] came in with an IC50 in test [1] (MKN-1) of 0.164 µM. Further, the Ki in test [2] (setting [4]) came to 0.00047 µM.
With `Cc1cccc([C@@H](C)Nc2nnc(C)c3cnc(N4CCN5CCOC[C@@H]5C4)cc23)c1F` [Example 12-131], in test [1] (setting [5]), the IC50 came out at 0.028 µM. Besides, the Ki in test [2] (setting [6]) stood at 0.0036 µM.
On to `Cc1c([C@@H](C)Nc2nnc(C)c3ccc(N4CCNC[C@@H](F)C4)cc23)cccc1C(F)(F)F` [Example 10-63, 7-((R)-6-fluoro-1,4-diazepan-1-yl)-4-methyl-N-((R)-1-(2-methyl-3-(trifluoromethyl)phenyl)ethyl)phthalazin-1-amine Hydrochloride salt], for which half-maximal inhibition in test [1] (MKN-1) (IC50) required 0.05 µM. Moreover, in test [2] (setting [4]), the Ki amounted to 0.00054 µM.
For the compound `Cc1c([C@@H](C)Nc2nnc(C)c3ccc(N4CCC(N5CCC(F)(F)C5)CC4)cc23)cccc1C(F)(F)F` [Example 10-49, (R)-7-(4-(3,3-difluoropyrrolidin-1-yl)piperidin-1-yl)-4-methyl-N-(1-(2-methyl-3-(trifluoromethyl)phenyl)ethyl)phthalazin-1-amine Formate salt], the IC50 in test [1] (MKN-1) is 0.107 µM. In addition, in test [2] (setting [4]), the Ki amounted to 0.00056 µM.
Turning to `Cc1c([C@@H](C)Nc2nncc3ccc(N4CCC5CCN(C)C5C4)cc23)cccc1C(F)(F)F` (stereo partly drawn) [Example 1-33, N-((R)-1-(2-methyl-3-(trifluoromethyl)phenyl)ethyl)-7-(1-methyloctahydro-6H-pyrrolo[2,3-c]pyridin-6-yl)phthalazin-1-amine], the IC50 in test [1] (setting [5]) was found to be 0.109 µM. In test [2] (setting [6]), the Ki was 0.0007 µM.
In test [1] (MKN-1), `Cc1c(C#N)cccc1[C@@H](C)Nc1nnc(C)c2ccc(N3CCNCC3)cc12` [Example 10-55, (R)-2-methyl-3-(1-((4-methyl-7-(piperazin-1-yl)phthalazin-1-yl)amino)ethyl)benzonitrile Formate salt] came in with an IC50 of 0.076 µM. Moreover, in test [2] (setting [4]), the Ki was 0.00076 µM.
In the case of `Cc1cc(F)ccc1[C@@H](C)Nc1nnc(C)c2cnc(N3CC4CC(C3)O4)cc12` [Example 12-84], the IC50 in test [1] (setting [5]) was 0.28 µM. The Ki in test [2] (setting [6]) amounted to 0.0434 µM.
The compound `Cc1c([C@@H](C)Nc2nnc(C)c3ccc(N4CC5(CCN(C)C5)C4)cc23)cccc1C(F)(F)F` [Example 10-41, (R)-4-methyl-N-(1-(2-methyl-3-(trifluoromethyl)phenyl)ethyl)-7-(6-methyl-2,6-diazaspiro[3.4]octan-2-yl)phthalazin-1-amine hydrochloride salt] returned an IC50 in test [1] (MKN-1) of 0.03 µM. In addition, in test [2] (setting [4]), the Ki came to 0.00052 µM.
`COc1c(C#N)cccc1[C@@H](C)Nc1nnc(C)c2cnc(N3CCOCC3)cc12` [Example 17-1, (R)-2-methoxy-3-(1-((4-methyl-7-morpholinopyrido[3,4-d]pyridazin-1-yl)amino)ethyl)benzonitrile] yielded an IC50 in test [1] (setting [3]) of 0.03 µM. Besides, the Ki in test [2] amounted to 0.00433 µM.

(Values after patent US11702418B2, “SOS1 inhibitors” (priority 2019, dated 2023).)
